Assay results reported in patent US7632838B2, “11-beta HSD1 inhibitors” (Wyeth, priority 2006, dated 2009).

Key:
human 11 b-HSD1 = biological target: T1, human 11 b-HSD1 (Homo sapiens, UniProt P28845); test: cell-based assay, stable CHO cell line expressing human 11 b-HSD1 (cortisone to cortisol, DiscoverX HitHunter Cortisol Assay); details: 11βHSD1 inhibition; stated as 'less than about'; read-out: inhibition constant IC50
T1 construct: expressed in transfected cells
Method: Compounds described herein can be tested in a cell-based assay using a stable CHO cell line expressing human 11 b-HSD1. Cells are plated at 20,000 cells/well in 96 well plates and incubated overnight (12-16 hrs) at 37° C./5% CO2. Cells are treated with different concentration of compound in 90 microliter serum-free media and incubated for 30 minutes at 37° C./5% CO2. 10 ul of 5 micromolar cortisone (final concentration 500 nM) is then added to the cells and the plate is incubated at 37° C./5% CO2 for 120 minutes. 15 microliter of media is withdrawn and amount of cortisol in the media is measured using the DiscoverX HitHunter Cortisol Assay (DiscoverX corp, CA).

T1 sequence (P28845 whole entry): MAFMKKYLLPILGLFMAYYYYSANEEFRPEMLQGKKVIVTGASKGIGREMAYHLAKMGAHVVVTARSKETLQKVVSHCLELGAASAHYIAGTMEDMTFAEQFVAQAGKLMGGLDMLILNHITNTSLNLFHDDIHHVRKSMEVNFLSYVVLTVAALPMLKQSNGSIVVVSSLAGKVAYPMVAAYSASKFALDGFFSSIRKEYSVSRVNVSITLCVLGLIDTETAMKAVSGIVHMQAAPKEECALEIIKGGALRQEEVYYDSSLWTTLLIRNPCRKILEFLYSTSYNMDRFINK

| IC50 (human 11 b-HSD1) [µM] | melting point [°C] | Compound |
| --- | --- | --- |
| < 10 |  | CC(C)(C)c1ccc(S(=O)(=O)N2CCN(c3ncccc3Cl)CC2)cc1 [Example 2A, 1-[(4-tert-butylphenyl)sulfonyl]-4-(3-chloropyridin-2-yl)piperazine] |
| < 10 |  | O=S(=O)(c1ccc2ccccc2c1)N1CCN(c2ncccc2Cl)CC1 [Example 2B, 1-(3-chloropyridin-2-yl)-4-(2-naphthylsulfonyl)piperazine] |
| < 10 |  | O=S(=O)(c1ccccc1Cl)N1CCN(c2ncccc2Cl)CC1 [Example 2D, 1-[(2-chlorophenyl)sulfonyl]-4-(3-chloropyridin-2-yl)piperazine] |
| < 10 |  | O=S(=O)(c1ccc(Cl)cc1)N1CCN(c2ncccc2Cl)CC1 [Example 2E, 1-[(4-chlorophenyl)sulfonyl]-4-(3-chloropyridin-2-yl)piperazine] |
| < 10 |  | Cc1ccc(S(=O)(=O)N2CCN(c3ncccc3Cl)CC2)cc1 [Example 2F, 1-(3-chloropyridin-2-yl)-4-[(4-methylphenyl)sulfonyl]piperazine] |
| < 10 |  | COc1ccc(S(=O)(=O)N2CCN(c3ncccc3Cl)CC2)cc1 [Example 2G, 1-(3-chloropyridin-2-yl)-4-[(4-methoxyphenyl)sulfonyl]piperazine] |
| < 10 |  | O=S(=O)(c1ccc(-c2ccccc2)cc1)N1CCN(c2ncccc2Cl)CC1 [Example 2H, 1-(biphenyl-4-ylsulfonyl)-4-(3-chloropyridin-2-yl)piperazine] |
| < 10 |  | O=S(=O)(Cc1ccccc1)N1CCN(c2ncccc2Cl)CC1 [Example 2I, 1-(benzylsulfonyl)-4-(3-chloropyridin-2-yl)piperazine] |
| < 10 |  | O=S(=O)(c1ccc(C(F)(F)F)cc1Br)N1CCN(c2ncccc2Cl)CC1 [Example 2J, 1-{[2-bromo-4-(trifluoromethyl)phenyl]sulfonyl}-4-(3-chloropyridin-2-yl)piperazine] |
| < 10 |  | C[C@H]1CN(C(=O)OCc2ccccc2)C[C@H](C)N1S(=O)(=O)c1ccc(C(C)(C)C)cc1 [Example 5, Benzyl (3S,5S)-4-[(4-tert-butylphenyl)sulfonyl]-3,5-dimethylpiperazine-1-carboxylate] |
| < 10 |  | C[C@H]1CN(c2ncccc2Cl)C[C@H](C)N1S(=O)(=O)c1ccc(C(C)(C)C)cc1 [Example 6, (2S,6S)-1-[(4-tert-butylphenyl)sulfonyl]-4-(3-chloropyridin-2-yl)-2,6-dimethylpiperazine] |
| < 10 |  | O=S(=O)(c1ccc2ccccc2c1)N1CCN(c2ccc(F)cc2C(F)(F)F)CC1 [Example 9F, 1-[4-fluoro-2-(trifluoromethyl)phenyl]-4-(2-naphthylsulfonyl)piperazine] |
| < 10 |  | O=S(=O)(c1ccc(Cl)c(Cl)c1)N1CCN(c2ncccc2F)CC1 [Example 13A, 1-[(3,4-dichlorophenyl)sulfonyl]-4-(3-fluoropyridin-2-yl)piperazine] |
| < 10 |  | N#Cc1cccnc1N1CCN(S(=O)(=O)c2ccc(Cl)c(Cl)c2)CC1 [Example 13B, 2-{4-[(3,4-dichlorophenyl)sulfonyl]piperazin-1-yl}nicotinonitrile] |
| < 10 |  | O=[N+]([O-])c1cccnc1N1CCN(S(=O)(=O)c2ccc(Cl)c(Cl)c2)CC1 [Example 13C, 1-[(3,4-dichlorophenyl)sulfonyl]-4-(3-nitropyridin-2-yl)piperazine] |
|  | 191 to 199 | O=C(N1CCC(Oc2c(Cl)cccc2Cl)CC1)C12CC3CC(CC(C3)C1)C2 [Example 18D, Adamantan-1-yl-[4-(2,6-dichloro-phenoxy)-piperidin-1-yl]-methanone] |
